Results from US20090054376A1, “BENZOFURAN DERIVATIVES WITH THERAPEUTIC ACTIVITIES” (Pharmos Corporation, priority 2005, published 2009).

What was measured:
IL-1β = test: Cytokine secretion into blood circulation in LPS injected mice, IL-1β; type: in vivo, Balb/C female mice; conditions: 2 mg/kg i.v., LPS 3 mg/kg i.p., plasma 90 minutes after LPS
Method: (§1) Balb/C female mice (average body weight 20 g, Harlan, Israel) were injected i.v. at a volume dosage of 5 ml/kg with either vehicle or test compounds at a dose of 2 mg/kg. Each treatment group comprised at least 9 animals. Immediately after compound or control administration, the mice were injected i.p. with 3 mg/kg LPS (E. coli 055:B5, Calbiochem). Ninety minutes after LPS induction, blood samples were collected into heparanized test tubes. Plasma was separated by centrifugation (10,000 rpm for 5 minutes at RT) and stored at −20° C. until assayed. The level of the inflammatory mediator under study, IL-1β, IL-6, IL-10 or TNF-α, was assayed by ELISA techniques.
(§2) The technique used to quantify the amount of a given protein in a liquid sample, either tissue culture supernatant or body fluid, is based on Enzyme Linked ImmunoSorbent Assay (ELISA) methodology. Either commercially available or established in house, the assay is based on the capture of the protein of interest by specific antibodies bound to the bottom of an ELISA plate well. Unbound material is washed away, the captured protein is then exposed to a secondary antibody generally labeled with horseradish peroxidase (HRP) or alkaline phosphatase (ALP). Again the unbound material is washed away, and the samples are then incubated with the appropriate substrate yielding a colorimetric reaction. The reaction is stopped and reading is performed in a spectrophotometer at the appropriate wavelength. Samples are tested at least in duplicate and the appropriate standard curve, consisting of serial dilutions of the recombinant target protein, is incorporated on each plate. The concentration of the protein in the sample is calculated from the standard curve.
(§3) The results are expressed as percent inhibition of secretion, taking into account the maximal cytokine concentration in vehicle “treated” animals and the baseline level in naïve animals. […] Inhibition above 50% was considered highly significant.

IL-6 = test: Cytokine secretion into blood circulation in LPS injected mice, IL-6; type: in vivo, Balb/C female mice; conditions: 2 mg/kg i.v., LPS 3 mg/kg i.p., plasma 90 minutes after LPS
Method: as §1, §2, §3

IL-10 = test: Cytokine secretion into blood circulation in LPS injected mice, IL-10; type: in vivo, Balb/C female mice; conditions: 2 mg/kg i.v., LPS 3 mg/kg i.p., plasma 90 minutes after LPS
Method: as §1, §2, §3

TNF-α = test: Cytokine secretion into blood circulation in LPS injected mice, TNF-α; type: in vivo, Balb/C female mice; conditions: 2 mg/kg i.v., LPS 3 mg/kg i.p., plasma 90 minutes after LPS
Method: as §1, §2, §3

[1] = tested on: visceral pain writhing responses; test: Visceral pain, acetic acid induced writhing responses; type: in vivo, Male ICR mice; conditions: for Percent Inhibition of Visceral Pain Writhing Responses / inhibition in vivo at 2 mg/kg: single dose 2 mg/kg i.v., compared to untreated group; for inhibition in vivo at 2 mg/kg: Mus musculus, iv, read-out: Percent Inhibition of Visceral Pain Writhing Responses
[2] = tested on: oxazolone induced DTH, ear thickness; test: Oxazolone induced delayed type hypersensitivity; type: in vivo, Male ICR mice; conditions: for decrease in ΔThickness, inhibition as compared to untreated animals: day one after challenge
Method: Male ICR mice (average body weight 20-25 g, Harlan, Israel) were anesthetized using a mixture of 35 mg/kg ketamine and 8 mg/kg xylazine. The abdomen of the sedated animals was shaved, and the animals were sensitized by topical application of 2% oxazolone in acetone:sesame oil (4:1 volume per volume), 100 μl to the shaved abdomen and 5 μl to each paw. Five days later, the sensitized mice were anesthetized again and their right ear was challenged with 10 μl of 1% oxazolone. Immediately before this challenge, vehicle (5 ml/kg) or test compounds were administered i.v. Each treatment group comprised at least 5 animals. The ear thickness was measured 24 and 48 hours following challenge using a micrometer. The difference in ear thickness (ΔThickness) between the challenged and non-challenged ear was calculated. The average ΔThickness and SEM were calculated on each day following challenge (baseline) for all treatment groups.

## CCCCC(C)(C)c1cc(O)c2c(c1)OC1(C)CCCC21 (stereo not drawn) [Compound C5S-1, 6-(1,1-dimethylpentyl)-8a-methyl-2,3,3a,8a-tetrahydro-1H-8-oxa-cyclopenta[α]inden-4-ol]
IL-1β
  Inhibition of cytokine secretion into blood circulation, IL-1β: 41%
IL-6
  Inhibition of cytokine secretion into blood circulation, IL-6: 28%
IL-10
  Inhibition of cytokine secretion into blood circulation, IL-10: 75%
TNF-α
  Inhibition of cytokine secretion into blood circulation, TNF-α: 77%
[1]
  Percent Inhibition of Visceral Pain Writhing Responses: 41%

## CCCCCCC(C)(C)c1cc(O)c2c3c(oc2c1)C(=O)CCC3(C)C [Compound C6M-9, 7-(1,1-Dimethylheptyl)-9-hydroxy-1,1-dimethyl-2,3-dihydro-1H-dibenzofuran-4-one]
[1]
  inhibition in vivo at 2 mg/kg: 38%

## CCCCC(C)(C)c1cc(O)c2c(c1)OC1C2CCC(C)(C)C1O (stereo not drawn) [Compound C6S-7, 3-(1,1-dimethylpentyl)-7,7-dimethyl-5a,6,7,8,9,9a-hexahydro-dibenzofuran-1,6-diol]
[1]
  inhibition in vivo at 2 mg/kg: 40%

## CCCCC(C)(C)c1cc(O)c2c(c1)OC1CCCCC21 (stereo not drawn) [Compound C6S-3, 3-(1,1-dimethylpentyl)-5a,6,7,8,9,9a-hexahydro-dibenzofuran-1-ol]
IL-1β
  Inhibition of cytokine secretion into blood circulation, IL-1β: NO (NO indicates that the compound tested did not significantly affect the level of cytokine in plasma of LPS injected mice and that its activity is comparable to vehicle, within ±20% from this control)
IL-6
  Inhibition of cytokine secretion into blood circulation, IL-6: NO (NO indicates that the compound tested did not significantly affect the level of cytokine in plasma of LPS injected mice and that its activity is comparable to vehicle, within ±20% from this control)
IL-10
  Inhibition of cytokine secretion into blood circulation, IL-10: 79%
TNF-α
  Inhibition of cytokine secretion into blood circulation, TNF-α: 78%
[2]; 2 mg/kg IV
  Difference in Ear Thickness, Baseline, Mean: 3.76 ×10^−2 mm
  Difference in Ear Thickness, Day 1, Mean: 8.64 ×10^−2 mm
  Difference in Ear Thickness, Day 2, Mean: 5.78 ×10^−2 mm
[2]; 2 mg/kg i.v.
  decrease in ΔThickness, inhibition as compared to untreated animals: 25%

## CCCCCCC(C)(C)c1cc(O)c2c(c1)OC1C=CCCC21 (stereo not drawn) [Compound C6S-2, 3-(1,1-Dimethylheptyl)-5a,8,9,9a-tetrahydro-dibenzofuran-1-ol]
IL-1β
  Inhibition of cytokine secretion into blood circulation, IL-1β: 56%
IL-6
  Inhibition of cytokine secretion into blood circulation, IL-6: NO (NO indicates that the compound tested did not significantly affect the level of cytokine in plasma of LPS injected mice and that its activity is comparable to vehicle, within ±20% from this control)
IL-10
  Inhibition of cytokine secretion into blood circulation, IL-10: 68%
TNF-α
  Inhibition of cytokine secretion into blood circulation, TNF-α: NO (NO indicates that the compound tested did not significantly affect the level of cytokine in plasma of LPS injected mice and that its activity is comparable to vehicle, within ±20% from this control)

## CCCCCCC(C)(C)c1cc(O)c2c(c1)OC1C(O)CCCCC21 (stereo not drawn) [Compound C7S-2, 2-(1,1-dimethylheptyl)-5,6,7,8,9,9a-hexahydro-4bH-10-oxa-benzo[α]azulen-4,9-diol]
[1]; 0.075 mg/kg i.v., compared to vehicle
  inhibition of writhing responses: 28%
[1]; 0.1 mg/kg i.v.
  inhibition of writhing responses: 74%
[1]; 0.25 mg/kg i.m.
  inhibition of writhing responses: 35%
[1]; 0.5 mg/kg i.m.
  inhibition of writhing responses: 90%
[1]; 0.5 mg/kg i.v.
  inhibition of pain responses: totally eradicated pain responses
[1]; 1 mg/kg i.m.
  inhibition of pain response: totally abrogated the pain response
[1]; 10 mg/kg p.o.
  inhibition of writhing responses: 58%
[1]; 20 mg/kg p.o.
  inhibition of writhing responses: 83%
[1]; IC50 in visceral pain, i.v.
  fold more potent than morphine: 12 fold
[1]
  inhibition in vivo at 2 mg/kg: > 90%
[1]; i.m. administration, calculated
  IC50 in visceral pain: about 0.27 mg/kg
[1]; i.v., estimated or calculated from dose range
  IC50 in visceral pain: 0.09 mg/kg
[1]; p.o. administration, calculated
  IC50 in visceral pain: about 6.6 mg/kg
[1]; subcutaneously, estimated
  IC50 in visceral pain: about 1 mg/kg
[2]; 0.5 mg/kg IV
  Difference in Ear Thickness, Baseline, Mean: 3.66 ×10^−2 mm
  Difference in Ear Thickness, Day 1, Mean: 8.18 ×10^−2 mm
  Difference in Ear Thickness, Day 2, Mean: 5.90 ×10^−2 mm
[2]; 0.5 mg/kg i.v.
  decrease in ΔThickness, inhibition as compared to untreated animals: 29%

## CCCCCCC(C)(C)c1cc(O)c2c(c1)OC1(C)CCCC21 (stereo not drawn) [Compound C5S-2, 6-(1,1-dimethylheptyl)-8a-methyl-2,3,3a,8a-tetrahydro-1H-8-oxa-cyclo-penta[α]inden-4-ol]
IL-1β
  Inhibition of cytokine secretion into blood circulation, IL-1β: 53%
IL-6
  Inhibition of cytokine secretion into blood circulation, IL-6: NO (NO indicates that the compound tested did not significantly affect the level of cytokine in plasma of LPS injected mice and that its activity is comparable to vehicle, within ±20% from this control)
IL-10
  Inhibition of cytokine secretion into blood circulation, IL-10: 64%
TNF-α
  Inhibition of cytokine secretion into blood circulation, TNF-α: 38%
[1]
  Percent Inhibition of Visceral Pain Writhing Responses: 72%
